Assays:
Human primary myoblasts = assay: Muscle stem cell commitment (MyoD+ cells); assay type: cell-based; conditions: donors 8 and 4; 96 hours culture; FIG. 3
Procedure: Human primary myoblasts from two different donors (donor 8 & donor 4) were seeded in 384 well plates at a density of 1'000 cells per well in skeletal muscle growth medium (SKM-M, AMSbio). For treatment, compounds were directly added to the myoblast cultures 16 hours after initial plating. All cultures were then grown for 96 hours. Cells were stained for Pax7 and MyoD expression using antibodies directed against Pax7 and MyoD and counterstained with Hoechst 33342 to visualize cell nuclei. […] Image acquisition was performed using the ImageXpress (Molecular Devices) platform. Custom module analysis based on Multi-Wavelength Cell Scoring of the MetaXpress software was used for quantification. For each condition, the total number of cells was determined to evaluate compound toxicity, and the number of MyoD+ cells was normalized to the total cell number in order to evaluate the proportion of this population. *, **, ***, **** indicates difference from the control (DMSO 1%), One-way ANOVA, with p<0.05, p<0.01, p<0.001, p<0.0001, respectively. Data are presented as Mean +/− SEM

[1] = target: T1, porcine pancreatic lipase (PPL) (Sus scrofa, UniProt P00591); assay: In vitro digestion in simulated intestinal fluid (SIF), pH-stat; assay type: in vitro ADME; conditions: SIF alone; emulsion with 200 mg fat; pH 6.8, 37° C.
T1 construct: by porcine pancreatic lipase (from pancreatin); from tissue; host or cells: pancreatin (pancreatic extract)
T1 sequence (P00591 1-450): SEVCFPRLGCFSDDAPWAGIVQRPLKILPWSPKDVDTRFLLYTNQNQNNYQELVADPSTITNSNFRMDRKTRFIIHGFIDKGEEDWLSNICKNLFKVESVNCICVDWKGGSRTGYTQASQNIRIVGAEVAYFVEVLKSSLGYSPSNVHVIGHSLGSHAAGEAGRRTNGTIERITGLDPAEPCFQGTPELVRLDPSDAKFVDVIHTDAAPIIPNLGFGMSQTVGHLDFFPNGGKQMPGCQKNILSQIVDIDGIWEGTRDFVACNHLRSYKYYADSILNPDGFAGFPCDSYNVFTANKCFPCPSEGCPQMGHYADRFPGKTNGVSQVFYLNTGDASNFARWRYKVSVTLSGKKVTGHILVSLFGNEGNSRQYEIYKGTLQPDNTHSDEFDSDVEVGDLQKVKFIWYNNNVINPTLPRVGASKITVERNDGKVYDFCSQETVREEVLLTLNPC
T1 sequence (P02703 23-112 partner): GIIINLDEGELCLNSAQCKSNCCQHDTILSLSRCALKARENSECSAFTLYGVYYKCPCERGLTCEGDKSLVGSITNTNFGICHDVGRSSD
Text: (§1) An emulsion was then created using an ultrasonic probe homogeniser.

[2] = tested on: rabbit gastric lipase (RGL) followed by porcine pancreatic lipase (PPL); assay: Sequential in vitro digestion, simulated gastric fluid (SGF) then simulated intestinal fluid (SIF); assay type: in vitro ADME
Text: as §1

Initial rate of lipolysis [1] [µmol/min] | Initial lipolysis rate in SIF ([2]; SGF-SIF sequential digestion, measured in SIF compartment) [µmol/min] | Hydrolysis in the stomach (gastric lipolysis), in words ([2]; gastric compartment, inferred from SGF-SIF vs SIF) | Lipolysis by gastric lipase ([2]; indicated by decreased total fatty acid release in SIF after RGL in SGF) [%] | SMILES | Myogenic commitment (MyoD+ cells normalized to total cell number) (Human primary myoblasts)
 |  |  |  | CCCC(=O)[O-].[Na+] [sodium butyrate] | promotes muscle stem cell differention
223 ± 59 | 44.1 ± 8.8 | extensive hydrolysis in the stomach | −60 | CCCC(=O)OCC(COC(=O)CCC)OC(=O)CCC [tributyrin] | 

Reference: patent publication US12317913B2, “Dietary butyrate” (SOCIETE DES PRODUITS NESTLE S.A., priority 2019, dated 2025)
